Where two headings read alike, the source gives them in different places.
System: FD (familial dysautomonia) IKBKAP minigene, exon 20 inclusion, in HEK293T cells
Assay: Primary splicing assay (FD IKBKAP minigene, Firefly/Renilla luciferase reporter in HEK293T)
Format: cell-based, human
Conditions: for Emax / EC (maximum kinetin efficacy): Homo sapiens, HEK-293T; for EC (maximum kinetin efficacy): HEK293T, read-out: ECk (compound concentration at which the maximum kinetin efficacy (200 μM) is reached); for ECk (RT-PCR): determined by RT-PCR, footnote a Firefly inhibitor, footnote b Renilla interference; for ECk, Firefly only: Renilla interference/Firefly only (footnote c)
Description: As used herein, the expression “ECk” refers to the compound concentration at which the maximum kinetin efficacy (200 μM) is reached.
Splicing analysis was made possible by using an FD (familial dysautomonia) IKBKAP minigene which contained exon 19 through exon 21, including intervening introns, and also the T→C Thymine to cytosine transition located 6 base-pairs from the end of IKBKAP exon 20; See SEQ ID NO:3 for the complete sequence of plasmid pcDNA3.1/V5HisTOPO with Renilla-Familial Dysautonomia minigene-Firefly. Firefly luciferase (SEQ ID NO:14) was utilized as a splicing reporter, located downstream of exon 21, and Renilla luciferase (SEQ ID NO:13) was used as a control, located upstream of exon 19. The sequence of exon 19 is presented as SEQ ID NO:7; the Intron between Exon 19 and Exon 20 is SEQ ID NO:8; exon 20 is SEQ ID NO:9; the intron between […]; exon 21 is SEQ ID NO: 11, and the spliced sequence of exons 19-20-21 is SEQ ID NO:12. HEK293T cells were plated in a 6-well plate 24 hours prior to transfection. Transfection was carried out using a mixture of Opti-MEM (GIBCO ref. 31985), IKBKAP minigene, and Fugene HID (PROMEGA ref. E2311), incubated in DMEM media containing HEK293T cells at 37° C. The ratio of Opti-MEM, minigene, and Fugene was kept at approximately 9:1.5:1, with a total volume of 150 μL of transfection mixture applied per well.
After 4 hours of transfection, the cells were then plated in a 96-well plate coated with poly-L-lysine (SIGMA cat.P4707) for treatment scheduled 24 hours later. […] After 24 hours of treatment, cells were washed in the poly-L-lysine coated 96-well plate using PBS and subsequently harvested using Passive Lysis Buffer (Promega cat.E196). Cell lysate was transferred to a black and white 96-well plate and analyzed for splicing correction using a Glomax luminometer (PROMEGA GloMax® 96 Microplate Luminometer w/Dual Injectors cat.E6521) and Promega Dual Glo Firefly and Stop and Glo Renilla reagents (Cat.E196). The compound's ability to correct splicing and promote exon 20 inclusion was marked by an increase in Firefly signal. Renilla signal, which is independent of exon 20 inclusion, was used to correct for cell number. Using the ratio of Firefly to Renilla signal, a dose response curve was produced, which referenced kinetin and DMSO Firefly/Renilla ratios as positive and negative controls, respectively.

[1] = max efficacy in Primary Assay, Firefly/Renilla ratio, kinetin and DMSO as positive and negative controls, 24 hours of treatment, read-out: Emax (%)
[2] = Firefly/Renilla ratio, 24 hours of treatment
[3] = max efficacy, value marked (RT-PCR), footnote a: Firefly inhibitor, read-out: Emax (%) (RT-PCR)
[4] = max efficacy, Firefly only, footnote c: Renilla interference/Firefly only, read-out: Emax (%) Firefly only

SMILES | Emax [1] [%] | EC (maximum kinetin efficacy) [2] [µM] | also measured
Cc1cccc(CNc2ncnc3[nH]cnc23)c1 [(1)] | 19 | – | –
c1coc(CNc2ncnc3[nH]ccc23)c1 [(3)] | 59 | – | –
FC(F)(F)c1cccc(CCNc2ncnc3[nH]cnc23)c1 [(5)] | – | 63.5 | –
c1c[nH]c(CNc2ncnc3[nH]cnc23)n1 [(6)] | 21 | – | –
c1cncc(CNc2ncnc3[nH]cnc23)c1 [(7)] | 39 | – | –
Cc1cc(CNc2ncnc3[nH]cnc23)on1 [(8)] | 25 | – | –
FC(F)(F)c1cccc(CNc2ncnc3[nH]cnc23)c1 [(10)] | 21 | – | –
Fc1cccc(CNc2ncnc3[nH]cnc23)c1 [(12)] | – | – | Emax (max efficacy in Primary Assay, value flagged footnote a: Firefly inhibitor, read-out: Emax (%)): 54%
FC(F)(F)c1cccc(Nc2ncnc3[nH]cnc23)c1 [(13)] | 16 | – | –
Cc1ccccc1CNc1ncnc2[nH]cnc12 [(14)] | 53 | – | –
Fc1ccccc1Nc1ncnc2[nH]cnc12 [(15)] | – | 158 | –
c1csc(CNc2ncnc3[nH]cnc23)n1 [(16)] | 67 | – | –
FC(F)(F)c1ccccc1Nc1ncnc2[nH]cnc12 [(18)] | 39 | – | –
Cn1cnc2c(NCc3ccco3)ncnc21 [(20)] | 22 | – | –
c1coc(CNc2ncnc3cc[nH]c23)c1 [(22)] | 49 | – | –
FC(F)(F)c1ccccc1CNc1ncnc2[nH]cnc12 [(23)] | 34 | – | –
Cc1cccc(CCNc2ncnc3[nH]cnc23)c1 [(25)] | – | 9.35 | –
FC(F)(F)c1ccc(CCNc2ncnc3[nH]cnc23)cc1 [(26)] | 66 | – | –
Fc1cccc(CCNc2ncnc3[nH]cnc23)c1 [(28)] | 98 | 123 | –
Cc1ccccc1CCNc1ncnc2[nH]cnc12 [(32)] | – | 60 | –
Fc1ccc(Nc2ncnc3[nH]cnc23)cc1 [(34)] | – | 26.6 | –

SMILES | Emax [1] [%] | EC (maximum kinetin efficacy) [2] [µM] | also measured
COc1nc(NCc2ccco2)c2nc[nH]c2n1 [(36)] | 18 | – | –
Cc1cccc(Nc2ncnc3[nH]cnc23)c1 [(37)] | – | 36.5 | –
c1ccc(-c2nc(NCc3ccco3)c3nc[nH]c3n2)cc1 [(38)] | 5 | – | –
c1cncc(CCNc2ncnc3[nH]cnc23)c1 [(41)] | 35 | – | –
FC(F)(F)c1nc(NCc2ccco2)c2nc[nH]c2n1 [(44)] | 19 | – | –
Cc1nc(NCc2ccco2)c2nc[nH]c2n1 [(45)] | 56 | – | –
N#Cc1nc(NCc2ccco2)c2nc[nH]c2n1 [(47)] | 99 | – | –
c1coc(CNc2ccnc3[nH]cnc23)c1 [(48)] | – | 72.8 | –
COc1cccc(Nc2ncnc3[nH]cnc23)c1 [(49)] | – | 42.5 | –
Cc1ccoc1CNc1ncnc2[nH]cnc12 [(54)] | 13 | – | –
Clc1nc(NCc2ccco2)c2cc[nH]c2n1 [(55)] | 173 | 1.71 | –
Clc1nc(NCc2ccco2)c2ccsc2n1 [(56)] | 152 | 8.23 | –
Clc1nc(NCc2ccco2)c2[nH]ccc2n1 [(57)] | – | 31.2 | –
Fc1nc(NCc2ccco2)c2nc[nH]c2n1 [(58)] | 155 | 17.9 | –
CN(C)c1nc(NCc2ccco2)c2nc[nH]c2n1 [(60)] | 13 | – | –
c1coc(CNc2nc(C3CC3)nc3[nH]cnc23)c1 [(65)] | 32 | – | –
CC(C)c1nc(NCc2ccco2)c2nc[nH]c2n1 [(67)] | 13 | – | –
c1cc(CNc2ncnc3[nH]cnc23)ncn1 [(68)] | 62 | – | –
Clc1nc(NCc2ccco2)c2ncn(Cc3ccncc3)c2n1 [(72)] | 39 | – | –
OCCn1cnc2c(NCc3ccco3)nc(Cl)nc21 [(73)] | 133 | 17.1 | –
OCCn1ccc2c(NCc3ccco3)ncnc21 [(74)] | 64 | – | –

SMILES | Emax [1] [%] | EC (maximum kinetin efficacy) [2] [µM] | also measured
Clc1nc(NCc2ccco2)c2ncn(Cc3cccnc3)c2n1 [(76)] | 69 | – | –
OCCn1ccc2c(NCc3ccco3)nc(Cl)nc21 [(77)] | – | – | Emax (max efficacy, value marked (RT-PCR), footnote b: Renilla interference, read-out: Emax (%) (RT-PCR)): 321%; ECk (RT-PCR): 1 to 10 µM
Clc1nc(NCc2ccco2)c2ncn(Cc3ccccn3)c2n1 [(79)] | 43 | – | –
Fc1c[nH]c2nc(Cl)nc(NCc3ccco3)c12 [(81)] | – | 3.08 | –
c1ccc(-c2c[nH]c3ncnc(NCc4ccco4)c23)cc1 [(83)] | 4 | – | –
Cc1c[nH]c2nc(Cl)nc(NCc3ccco3)c12 [(84)] | – | – | Emax [3]: 251%; ECk (RT-PCR): 1 to 10 µM
Clc1nc(NCc2ccco2)c2cn[nH]c2n1 [(85)] | 96 | – | –
Clc1nc(NCc2ccco2)c2c(-c3ccccc3)c[nH]c2n1 [(86)] | 29 | – | –
Cc1nc2ncnc(NCc3ccco3)c2[nH]1 [(87)] | 46 | – | –
Clc1nc(NCc2ccco2)c2nc(-c3cccnc3)[nH]c2n1 [(88)] | 33 | – | –
Clc1nc(NCc2ccco2)c2c(-c3ccncc3)c[nH]c2n1 [(89)] | 21 | – | –
Cc1nc2c(NCc3ccco3)nc(Cl)nc2[nH]1 [(90)] | 159 | 11.8 | –
Clc1nc(NCc2ccco2)c2nc(-c3ccccc3)[nH]c2n1 [(93)] | 63 | – | –
COCCn1ccc2c(NCc3ccco3)nc(Cl)nc21 [(94)] | – | – | Emax [3]: 180%; ECk (RT-PCR): 10 to 31.6 µM
Clc1nc(NCc2ccco2)c2nc(C3CC3)[nH]c2n1 [(95)] | 103 | 122 | –
c1coc(CNc2ncnc3[nH]c(C4CC4)nc23)c1 [(96)] | 65 | – | –
Clc1nc(NCc2ccco2)c2nc(Cc3ccncc3)[nH]c2n1 [(99)] | 47 | – | –
Clc1nc(NCc2ccco2)c2nc(N3CCOCC3)[nH]c2n1 [(102)] | 52 | – | –
OC1CN(c2nc3c(NCc4ccco4)nc(Cl)nc3[nH]2)C1 [(104)] | 246 | 12 | –
Cc1cn(CCO)c2nc(Cl)nc(NCc3ccco3)c12 [(105)] | – | – | Emax [4]: 134%; ECk, Firefly only: 10.36 µM⁻¹
O=C(O)c1ccc(CNc2nc(Cl)nc3[nH]ccc23)cc1 [(106)] | 14 | – | –

SMILES | Emax [1] [%] | EC (maximum kinetin efficacy) [2] [µM] | also measured
OCCCn1ccc2c(NCc3ccco3)nc(Cl)nc21 [(108)] | – | – | Emax [3]: 172%
OCc1c[nH]c2nc(Cl)nc(NCc3ccco3)c12 [(109)] | – | – | Emax [4]: 128%; ECk, Firefly only: 12.16 µM⁻¹
Clc1nc(NCc2ccncn2)c2cc[nH]c2n1 [(110)] | – | – | Emax [4]: 193%; ECk, Firefly only: 4.92 µM⁻¹
OCCn1cc(F)c2c(NCc3ccco3)nc(Cl)nc21 [(111)] | – | – | Emax [4]: 191%; ECk, Firefly only: 9.3 µM⁻¹
Fc1c[nH]c2nc(Cl)nc(NCc3ccncn3)c12 [(112)] | – | – | Emax [4]: 111%; ECk, Firefly only: 5.33 µM⁻¹
CNc1nc2c(NCc3ccco3)nc(Cl)nc2[nH]1 [(113)] | 132 | 5.17 | –
Fc1c[nH]c2nc(Cl)nc(NCc3ccncc3)c12 [(114)] | – | – | Emax [4]: 174%; ECk, Firefly only: 6.59 µM⁻¹
Cc1cc2c(NCc3ccco3)nc(Cl)nc2[nH]1 [(115)] | 174 | 5.92 | –
Fc1c[nH]c2nc(Cl)nc(NCc3nccs3)c12 [(116)] | 112 | 31.8 | –
O=C(O)c1ccc(CNc2nc(Cl)nc3[nH]cc(F)c23)cc1 [(117)] | 23 | – | –
CN(C)c1nc2c(NCc3ccco3)nc(Cl)nc2[nH]1 [(118)] | 112 | 10.5 | –
Cc1cc2c(NCc3ccncc3)nc(Cl)nc2[nH]1 [(119)] | 114 | 11.2 | –
Cc1c[nH]c2nc(Cl)nc(NCc3ccncc3)c12 [(120)] | 166 | 2.75 | –
Cc1cn(CCO)c2nc(Cl)nc(NCc3ccncc3)c12 [(121)] | 189 | 17.3 | –
OCCn1ccc2c(NCc3ccncc3)nc(Cl)nc21 [(122)] | 256 | 5.65 | –
Cc1c[nH]c2nc(Cl)nc(NCc3nccs3)c12 [(123)] | 92 | 4.9 | –
COc1nc2c(NCc3ccco3)nc(Cl)nc2[nH]1 [(124)] | 180 | 2.41 | –
Cc1cn(CCO)c2nc(Cl)nc(NCc3nccs3)c12 [(125)] | 225 | 6.52 | –
